In ChEMBL document CHEMBL1147528, “(S)-N-[1-(4-cyclopropylmethyl-3,4-dihydro-2H-benzo[1,4]oxazin-6-yl)-ethyl]-3-(2-fluoro-phenyl)-acrylamide is a potent and efficacious KCNQ2 opener which inhibits induced hyperexcitability of rat hippocampal neurons” (Bioorg Med Chem Lett, 2004) one finds E/Eref and EC50 data, which are given here for six compounds.

For experiment [1], the target named is Potassium voltage-gated channel subfamily KQT member 2 (Mus musculus) (UniProt Q9Z351). In words: Efficacy for mKCNQ2 expressed in HEK293 cells relative to reference compound. The class given is functional, cell-based.
Sequence of Potassium voltage-gated channel subfamily KQT member 2 (Mus musculus) (Q9Z351 whole entry): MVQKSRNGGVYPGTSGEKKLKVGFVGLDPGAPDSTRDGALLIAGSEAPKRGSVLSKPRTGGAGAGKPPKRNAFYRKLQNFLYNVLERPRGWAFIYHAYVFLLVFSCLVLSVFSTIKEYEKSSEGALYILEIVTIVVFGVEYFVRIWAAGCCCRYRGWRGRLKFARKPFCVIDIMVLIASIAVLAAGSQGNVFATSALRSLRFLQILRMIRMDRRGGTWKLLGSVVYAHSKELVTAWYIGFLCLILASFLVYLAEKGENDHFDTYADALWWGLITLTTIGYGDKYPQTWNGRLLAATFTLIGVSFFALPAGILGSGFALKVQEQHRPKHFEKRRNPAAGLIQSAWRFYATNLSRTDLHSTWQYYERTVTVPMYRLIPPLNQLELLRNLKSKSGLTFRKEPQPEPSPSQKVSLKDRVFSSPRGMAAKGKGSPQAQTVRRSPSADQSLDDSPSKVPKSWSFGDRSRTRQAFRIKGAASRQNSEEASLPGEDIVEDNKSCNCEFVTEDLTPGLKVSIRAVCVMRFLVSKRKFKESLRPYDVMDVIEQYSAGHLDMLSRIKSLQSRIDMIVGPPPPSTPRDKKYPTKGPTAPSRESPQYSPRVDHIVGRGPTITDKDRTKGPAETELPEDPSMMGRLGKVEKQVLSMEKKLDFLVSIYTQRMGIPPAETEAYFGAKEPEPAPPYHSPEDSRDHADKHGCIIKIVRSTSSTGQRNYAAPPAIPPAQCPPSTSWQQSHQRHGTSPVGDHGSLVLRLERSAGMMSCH
For experiment [2], the target named is Potassium voltage-gated channel subfamily KQT member 2 (Mus musculus, UniProt Q9Z351). In words: Whole-cell patch-clamp on recombinant mouse KCNQ2 channels expressed in HEK 293 cells at -40 mV. The format is functional, cell-based, HEK293. (In general: In patch-clamp work, channel activity is measured electrically.)
Sequence of Potassium voltage-gated channel subfamily KQT member 2 (Q9Z351 whole entry): as above

Turning to `C[C@H](NC(=O)/C=C/c1ccccc1F)c1ccc2c(c1)N(C)CCO2`, the E/Eref in experiment [1] amounted to 1.8. Further, in experiment [2], the half-maximal effective concentration (EC50) (usually the concentration that produces a half-maximal response) was determined as 0.94 µM.
As to `CCOC(=O)Nc1ccc(NCc2ccc(F)cc2)cc1N` [EZOGABINE], the E/Eref in experiment [1] is 1.6. For the same compound, in experiment [2], the concentration giving a half-maximal response (EC50) turned out to be 1.3 µM.
Taken in the same sequence, the figures for `C[C@H](NC(=O)/C=C/c1ccccc1F)c1ccc2c(c1)N(CC1CC1)CCO2` were 1.83 and 0.06 µM.
Taken in the same sequence, the figures for `C[C@H](NC(=O)/C=C/c1ccccc1F)c1ccc2c(c1)NCCO2` were 1.2 and 2 µM.
On the same counts, the results for `C[C@H](NC(=O)/C=C/c1ccccc1)c1cccc(N2CCOCC2)c1` are 1.4 and 3.28 µM.
In experiment [1], `CCN1CCOc2ccc([C@H](C)NC(=O)/C=C/c3ccccc3F)cc21` showed an E/Eref of 2.1. Further, in experiment [2], the EC50 came to 0.2 µM.
